Measured values: ChEMBL document CHEMBL3217636, “Design, synthesis and biological evaluation of novel benzothiazole and triazole analogs as falcipain inhibitors” (Medchemcomm, 2011)
Activity calls are given as the source filed them. The rule behind the calls is not given here.

Assays:
[1] = Inhibition of Plasmodium falciparum recombinant falcipain 2
Cathepsin B = Cathepsin B (Homo sapiens, UniProt P07858); assay: Inhibition of human cathepsin B
Cathepsin K = molecular target: T1, Cathepsin K (Homo sapiens, UniProt P43235); assay: Inhibition of human cathepsin K
T1 sequence (P43235 whole entry): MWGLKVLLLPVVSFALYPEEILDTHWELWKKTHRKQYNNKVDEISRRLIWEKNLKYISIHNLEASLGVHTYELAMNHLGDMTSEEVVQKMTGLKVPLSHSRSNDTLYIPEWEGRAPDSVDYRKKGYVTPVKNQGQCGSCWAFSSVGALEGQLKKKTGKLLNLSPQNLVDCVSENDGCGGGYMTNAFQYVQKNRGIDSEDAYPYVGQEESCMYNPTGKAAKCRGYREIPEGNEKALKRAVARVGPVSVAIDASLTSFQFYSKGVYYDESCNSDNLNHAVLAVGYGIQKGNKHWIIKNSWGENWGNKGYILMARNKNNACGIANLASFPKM

Plasmodium falciparum [2] = assay: Antimalarial activity against Plasmodium falciparum W2; format: functional, organism-based
Procathepsin L = Procathepsin L (Homo sapiens, UniProt P07711); assay: Inhibition of human cathepsin L1
[3] = Inhibition of Plasmodium falciparum recombinant falcipain 3
Plasmodium falciparum [4] = assay: Antimalarial activity against Plasmodium falciparum W2 at 10 uM; format: functional, organism-based

Procathepsin L, sequence (P07711 whole entry): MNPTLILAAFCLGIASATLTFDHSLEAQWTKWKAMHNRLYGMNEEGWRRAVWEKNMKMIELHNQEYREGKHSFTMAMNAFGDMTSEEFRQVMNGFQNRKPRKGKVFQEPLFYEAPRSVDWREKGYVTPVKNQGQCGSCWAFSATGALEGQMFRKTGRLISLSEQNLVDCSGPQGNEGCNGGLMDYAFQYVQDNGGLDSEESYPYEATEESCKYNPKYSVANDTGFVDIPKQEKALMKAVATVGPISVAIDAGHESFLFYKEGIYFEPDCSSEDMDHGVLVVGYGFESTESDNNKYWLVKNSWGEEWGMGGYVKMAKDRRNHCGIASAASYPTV

Row | SMILES | IC50 [1] | further results
1 | Cc1cc(NC(=O)Cn2cc(COc3ccccc3)nn2)no1 | > 50 µM | –
2 | COc1ccc2cc(-c3cn(CC(=O)Nc4cc(C)on4)nn3)ccc2c1 | 38.4 µM | –
3 | Cc1cc(NC(=O)Cn2cc(-c3cccc(O)c3)nn2)no1 | > 50 µM | –
4 | CC(=O)Nc1ccc2nc(SCC(=O)c3ccc4ccccc4c3)sc2c1 | 13.2 µM | –
5 | CCOC(=O)CSc1nc2ccc(NS(=O)(=O)CC(F)(F)F)cc2s1 | > 50 µM | –
6 | Cc1cc(NC(=O)Cn2cc(-c3cccnc3)nn2)no1 | > 50 µM | –
7 | Cc1cc(NC(=O)Cn2nnc(-c3ccc(NC(=O)c4ccc(F)cc4)cc3)n2)no1 | 2.2 µM | IC50 (Cathepsin B): 37.1 µM; IC50 (Cathepsin K): 3.83 µM; IC50 (Plasmodium falciparum [2]): > 10 µM; IC50 (Procathepsin L): 24.4 µM; IC50 [3]: 4.95 µM
8 | O=C(CSc1nc2ccc(NS(=O)(=O)c3ccccc3[N+](=O)[O-])cc2s1)c1ccccc1 | 11.1 µM | –
9 | Cc1ccc(NC(=O)CSc2nc3ccc(NS(=O)(=O)CC(F)(F)F)cc3s2)cc1 | 24.3 µM | –
10 | Cc1ccc(NC(=O)CSc2nc3ccc(N)cc3s2)cc1 | > 50 µM | –
11 | Cc1cc(NC(=O)Cn2cc(-c3ccc(F)cc3)nn2)no1 | > 50 µM | –
12 | O=C(CSc1nc2ccc(NS(=O)(=O)c3ccc(OC(F)(F)F)cc3)cc2s1)c1ccc2ccccc2c1 | > 50 µM | –
13 | COc1ccc(C(=O)Nc2ccc3nc(SCC(=O)c4ccccc4)sc3c2)cc1 | 10.3 µM | IC50 (Cathepsin B): 17.7 µM; IC50 (Cathepsin K): 6.12 µM; IC50 (Plasmodium falciparum [2]): > 10 µM; IC50 (Procathepsin L): 31.6 µM; IC50 [3]: > 50 µM
14 | O=C(CSc1nc2ccc(NS(=O)(=O)c3ccc(OC(F)(F)F)cc3)cc2s1)c1ccccc1 | 35.7 µM | –
15 | CCOC(=O)CSc1nc2ccc(NS(=O)(=O)c3ccc(F)cc3)cc2s1 | > 50 µM | –
16 | CC(C)[C@@H](N)C(=O)Nc1ccc2nc(SCC(=O)c3ccc4ccccc4c3)sc2c1 | 12.2 µM | IC50 (Cathepsin B): > 50 µM; IC50 (Cathepsin K): 14.5 µM; IC50 (Plasmodium falciparum [2]): 4.65 µM; IC50 (Procathepsin L): 5.87 µM; IC50 [3]: 13.8 µM
17 | Cc1cc(NC(=O)Cn2cc(-c3ccc(C=O)cc3)nn2)no1 | > 50 µM | –
18 | CCOC(=O)CSc1nc2ccc(N)cc2s1 | > 50 µM | –
19 | CCCCCc1ccc(-c2cn(CC(=O)Nc3cc(C)on3)nn2)cc1 | 39 µM | –
20 | Cc1ccc(NC(=O)CSc2nc3ccc(NS(=O)(=O)c4ccc(OC(F)(F)F)cc4)cc3s2)cc1 | 16.9 µM | –

Row | SMILES | IC50 [1] | further results
21 | CC(=O)Nc1ccc2nc(SCC(=O)Nc3ccc(C)cc3)sc2c1 | 13.9 µM | –
22 | Cc1ccc(NC(=O)CSc2nc3ccc(NC(=O)[C@H](N)C(C)C)cc3s2)cc1 | > 50 µM | –
23 | N[C@@H](C(=O)Nc1ccc2nc(SCC(=O)c3ccc4ccccc4c3)sc2c1)c1ccccc1 | 12.8 µM | IC50 (Cathepsin B): > 50 µM; IC50 (Cathepsin K): 5.62 µM; Activity (Plasmodium falciparum [4]): inactive; IC50 (Procathepsin L): 4.39 µM; IC50 [3]: 14.9 µM
24 | Cc1cc(NC(=O)Cn2cc(-c3ccc(Oc4ccccc4)cc3)nn2)no1 | 19.9 µM | IC50 [3]: 39.7 µM
25 | Cc1ccc(NC(=O)CSc2nc3ccc(NS(=O)(=O)c4ccc(F)cc4)cc3s2)cc1 | 16.5 µM | –
26 | CCOC(=O)CSc1nc2ccc(NS(=O)(=O)c3ccccc3[N+](=O)[O-])cc2s1 | > 50 µM | –
27 | Cc1ccc(NC(=O)CSc2nc3ccc(NS(=O)(=O)c4ccc5ccncc5c4)cc3s2)cc1 | 14 µM | –
28 | Cc1cccc(-c2cn(CC(=O)Nc3cc(C)on3)nn2)c1 | > 50 µM | –
29 | Nc1ccc2nc(SCC(=O)c3ccccc3)sc2c1 | > 50 µM | –
30 | Cc1cc(NC(=O)Cn2cc(-c3ccccc3)nn2)no1 | > 50 µM | –
31 | Cc1cc(NC(=O)Cn2cc(CCCCl)nn2)no1 | > 50 µM | –
32 | Cc1cc(NC(=O)Cn2cc(-c3cccc4ccccc34)nn2)no1 | > 50 µM | –
33 | CC(C)C[C@H](NC(=O)[C@H]1O[C@@H]1C(=O)O)C(=O)NCCCCN=C(N)N [E-64] | 0.03 µM | IC50 (Cathepsin B): 0.005 µM; IC50 (Cathepsin K): 0.004 µM; IC50 (Procathepsin L): 0.016 µM
34 | C[C@@H]1CC[C@H]2[C@@H](C)C(=O)O[C@@H]3O[C@@]4(C)CC[C@@H]1[C@]32OO4 [ARTEMISININ] | – | IC50 (Plasmodium falciparum [2]): 0.012 µM
35 | O=C(CSc1nc2ccc(NS(=O)(=O)c3ccc(F)cc3)cc2s1)c1ccc2ccccc2c1 | 43.2 µM | –
36 | O=C(CSc1nc2ccc(NS(=O)(=O)c3ccc4ccncc4c3)cc2s1)c1ccc2ccccc2c1 | > 50 µM | IC50 (Plasmodium falciparum [2]): 2.08 µM
37 | Cc1ccc(NC(=O)CSc2nc3ccc(NC(=O)[C@H](N)c4ccccc4)cc3s2)cc1 | > 50 µM | –
38 | CCOC(=O)CSc1nc2ccc(NS(=O)(=O)c3ccc4ccncc4c3)cc2s1 | 31.3 µM | –
39 | Nc1ccc2nc(SCC(=O)c3ccc4ccccc4c3)sc2c1 | > 50 µM | –
